# Read-outs that look alike come from different tables or passages of the source.
# How the values were obtained:
# [1] = system: Bacillus subtilis (ATCC-6633); test: microbe, parasite or virus in culture; type: cell-based; details: ATCC6633, Gram-positive
# Protocol: (§1) Daptomycin and polymyxin B were selected as positive controls against Gram-positive and Gram-negative bacteria, respectively.
# (§2) All experiments were conducted in triplicate.
# E. faecalis (ATCC 29212) = test: microbe, parasite or virus in culture; type: cell-based; details: Enterococcus faecalis, ATCC29212; Gram-positive
# Protocol: as §1, §2
# E. faecalis (ATCC 51575) = test: microbe, parasite or virus in culture; type: cell-based; details: Enterococcus faecalis, ATCC51575; Gram-positive; gentamicin-, streptomycin-, vancomycin-resistant
# Protocol: as §1, §2
# E. faecium (ATCC 27270) = test: microbe, parasite or virus in culture; type: cell-based; details: Enterococcus faecium, ATCC27270; Gram-positive
# Protocol: as §1, §2
# [2] = system: S. pneumonia (ATCC 49619); test: microbe, parasite or virus in culture; type: cell-based; details: Streptococcus pneumoniae, ATCC49619; Gram-positive
# Protocol: as §1, §2
# [3] = system: S. pneumonia (ATCC 51938); test: microbe, parasite or virus in culture; type: cell-based; details: Streptococcus pneumoniae, ATCC51938; Gram-positive; penicillin-, clindamycin-, cotrimoxazole-, erythromycin-resistant
# Protocol: as §1, §2
# [4] = system: P. aeruginosa (ATCC 27883); test: Synergistic checkerboard assay; type: cell-based; details: Pseudomonas aeruginosa, ATCC27883; checkerboard; read-out: MIC antibiotic alone
# E. coli (ATCC 25922) [5] = test: Synergistic checkerboard assay; type: cell-based; details: Escherichia coli, ATCC25922; checkerboard; read-out: MIC antibiotic alone
# [6] = system: S. aureus (ATCC 29213), MRSA (ATCC BAA-1556), E. coli (ATCC 25922), E. coli (ATCC BAA-2452); test: Serial passage resistance development study; type: cell-based, S. aureus and E. coli; details: 18 repeated passages
# Protocol: The data represent the experiments performed in triplicate.
# The assays were performed in 96-well microtiter plates using 2-fold serial dilutions of all the test specimens. From an inoculated microtiter plate, an aliquot of the well with the highest concentration permitting growth was taken and diluted in fresh media to achieve the optimum bacterial load identified by comparing the turbidity with the 0.5 McFarland standard. The bacterial suspension was then further diluted and used for successive passage with a resulting final concentration of 5 × 10^5 CFU/mL. MICs were recorded, and the next inoculum was prepared from the well containing the highest concentration of the drug that allowed growth. Eighteen repeated passages were performed in an identical fashion to that described above.
# [7] = system: K. pneumoniae (ATCC BAA-1705); details: antibiotic alone or physical mixture with peptide (1:1 w/w)
# [8] = system: P. aeruginosa (ATCC 27883); details: antibiotic alone or physical mixture with peptide (1:1 w/w)
# E. coli (ATCC 25922) [9] = details: antibiotic alone or physical mixture with peptide (1:1 w/w)
# [10] = Calcein dye leakage assay; details: 50 μg/mL, 100 min
# [11] = Calcein dye leakage assay; details: 50 μg/mL, 100 min; remark: listed apart in the source
# [12] = system: K. pneumoniae (ATCC BAA-1705); test: Synergistic checkerboard assay; details: Klebsiella pneumoniae, ATCCBAA1705, read-out: MIC antibiotic alone
# Protocol: This study aimed to compare the influence of synergistic combinations on the antibacterial efficacy against the individual peptide or antibiotic. The comparison is represented by the fractional inhibitory concentration index (FICI) value, which classifies the combined impact of the two tested compounds. Selected antibiotics were tested as 11 dose points of two-fold serial dilutions across the assay plate in combination with seven points of two-fold serial dilution of the peptides down the assay plate. Two-fold serial dilutions for antibiotics and peptides were performed individually to determine the MIC value for each tested compound.
# The concentrations of the peptide started from its respective MICs and were then subjected to two-fold serial dilutions (a total of 7 points). […] Antibiotics were tested as 11 points, two-fold serial dilutions across the assay plate (from 1 to 11 columns) in combination with a seven (A–G)-point and two-fold serial dilution of the peptides down the assay plate. […] In column 12 (A–G) down the assay plate, a two-fold serial dilution of the peptide alone was performed.
# The following equation was applied to calculate the FICI: (A)/MICA + (B)/MICB = FICA + FICB = FICI, where (A) and (B) are the MIC of (antibiotic + [peptide]) in combination (in a single well) and MICA and MICB are the MIC of each compound individually. Based on the calculated FICI value, the interaction between combinations was categorized into four prospects synergy, partial synergy, additive or indifference, and antagonism. […] All experiments were performed in triplicate.
# MRSA (ATCC BAA-1556) = test: microbe, parasite or virus in culture; details: Staphylococcus aureus, ATCCBAA1556|MRSA, 24 h, read-out: MBC MRSA (ATCC BAA-1556)
# [13] = system: human red blood cells (hRBCs); details: red cells of human, 2 h
# E. coli (ATCC 25922) [14] = system: E. coli (ATCC 25922)
# [15] = system: K. pneumoniae (ATCC 700603)
# [16] = system: K. pneumoniae (ATCC BAA 1705)
# [17] = system: P. aeruginosa (ATCC 27853)
# [18] = system: Acinetobacter baumannii (NCTC 13304)
# [19] = system: Acinetobacter baumannii-calcoaceticus species complex (1188767)
# [20] = system: Acinetobacter baumannii-calcoaceticus species complex (1189854)
# [21] = system: K. pneumoniae (ATCC BAA-1705); details: 24 h, ≥99.9% kill
# [22] = system: P. aeruginosa (ATCC 27883); details: 24 h, ≥99.9% kill
# E. coli (ATCC 25922) [23] = details: 24 h, ≥99.9% kill
# in vitro = details: human, human plasma
# Protocol: For accurate quantification, we employed a mass spectrometer (Q-TOF LC/MS) with a high resolving power. To remove the background interference, the data were processed by using a narrower (±0.1 m/z) extracted ion chromatogram (EIC) window. The test peptide (100 μM) was incubated in human plasma at 37 °C in a water bath. […] Plasma proteins were precipitated by the addition of cold ethanol (200 μL) and incubated for 30 min at −20 °C. […] The samples were dissolved in water and analyzed on a Delta-Pak (Waters) C18 column (100 Å, 5 μm, 3.9 mm × 150 mm) at a flow rate of 0.3 mL/min using a linear gradient of aqueous acetonitrile in the presence of formic acid (FA; 0.1%, v/v) as an ion pair reagent. Peptides were detected by recording the absorbance at 220 nm and quantified by their peak areas of EIC. The percentage digestion of the test peptides was calculated relative to the peak areas at 0 min.
compound,measurement,setting,value
CCCCCCCCCC(=O)N[C@@H](Cc1c[nH]c2ccccc12)C(=O)N[C@H](CC(N)=O)C(=O)N[C@@H](CC(=O)O)C(=O)N[C@@H]1C(=O)NCC(=O)N[C@@H](CCCN)C(=O)N[C@@H](CC(=O)O)C(=O)N[C@H](C)C(=O)N[C@@H](CC(=O)O)C(=O)NCC(=O)N[C@H](CO)C(=O)N[C@@H]([C@H](C)CC(=O)O)C(=O)N[C@@H](CC(=O)c2ccccc2N)C(=O)O[C@@H]1C [daptomycin],MIC,[1],0.5 µg/mL
same,MIC,E. faecalis (ATCC 29212),16 µg/mL
same,MIC,E. faecalis (ATCC 51575),4 µg/mL
same,MIC,E. faecium (ATCC 27270),4 µg/mL
same,MIC,[2],4 µg/mL
same,MIC,[3],8 µg/mL
same,MIC,[4],512 µg/mL
same,MIC,E. coli (ATCC 25922) [5],> 128 µg/mL
same,change in MIC on resistance induction,[6],negligible changes in the MICs
same,MIC K. pneumoniae (ATCC BAA-1705),[7],512 µg/mL
same,MIC P. aeruginosa (ATCC 27883),[8],512 µg/mL
same,MIC E. coli (ATCC 25922),E. coli (ATCC 25922) [9],256 µg/mL
same,calcein dye release,[10],42%
same,calcein dye leakage,[11],around 7%
same,MIC,[12],512 µg/mL
same,MBC,MRSA (ATCC BAA-1556),8 µg/mL
"N=C(N)NCCC[C@@H]1NC(=O)[C@H](CCCNC(=N)N)NC(=O)[C@H](CCCNC(=N)N)NC(=O)[C@H](Cc2c[nH]c3ccccc23)NC(=O)[C@H](Cc2c[nH]c3ccccc23)NC(=O)[C@H](Cc2c[nH]c3ccccc23)NC(=O)[C@H](Cc2c[nH]c3ccccc23)NC(=O)[C@H](CCCNC(=N)N)NC(=O)[C@H](CCCNC(=N)N)NC1=O [5a, [R5W4]]",HC50,[13],340 µg/mL
same,MIC S. aureus (1193193),S. aureus (1193193),4 µg/mL
same,MIC S. aureus (1195201),S. aureus (1195201),4 µg/mL
same,MIC S. aureus (ATCC 29213),S. aureus (ATCC 29213),4 µg/mL
same,MIC E. coli (1191008),E. coli (1191008),16 µg/mL
same,MIC E. coli (ATCC 25922),E. coli (ATCC 25922) [14],16 µg/mL
same,MIC E. coli (ATCC BAA-2452),E. coli (ATCC BAA-2452),16 µg/mL
same,MIC K. pneumoniae (ATCC 700603),[15],>64 µg/mL
same,MIC K. pneumoniae (1188718),K. pneumoniae (1188718),>64 µg/mL
same,MIC K. pneumoniae (ATCC BAA 1705),[16],>64 µg/mL
same,MIC P. aeruginosa (1191191),P. aeruginosa (1191191),32 µg/mL
same,MIC P. aeruginosa (1188712),P. aeruginosa (1188712),16 µg/mL
same,MIC P. aeruginosa (ATCC 27853),[17],32 µg/mL
same,MIC Acinetobacter baumannii (NCTC 13304),[18],16 µg/mL
same,MIC Acinetobacter baumannii-calcoaceticus species complex (1188767),[19],32 µg/mL
same,MIC Acinetobacter baumannii-calcoaceticus species complex (1189854),[20],16 µg/mL
same,MBC K. pneumoniae (ATCC BAA-1705),[21],64 µg/mL
same,MBC P. aeruginosa (ATCC 27883),[22],32 µg/mL
same,MBC E. coli (ATCC 25922),E. coli (ATCC 25922) [23],16 µg/mL
same,"remaining at 0.5 h, 100 μM",in vitro,~79%
same,"remaining at 2 h, 100 μM",in vitro,~56%

# Source: publication PMC9743092, “Membrane-Active Cyclic Amphiphilic Peptides: Broad-Spectrum Antibacterial Activity Alone and in Combination with Antibiotics” (Journal of Medicinal Chemistry, 2022)
